This note sets out measurements from PubChem BioAssay AID652002 (Sanford-Burnham Center for Chemical Genomics, 2013).

Calls of active or inactive are those of the source. No rule for the calls is given here.

Test [1] has as its target Tumor necrosis factor receptor superfamily member 10B (Homo sapiens) (UniProt O14763). Description: compound enhancement of TRAIL-induced cell killing – NB7 cells plus caspase-8, luminescence, panel, dose response (AID 652002). Particulars: NB7 neuroblastoma +caspase-8, TRAIL sensitization, luminescence viability; NB7+Caspase-8; with TRAIL, mean of runs.
Assay in test [2]: as above
Particulars: NB7 neuroblastoma +caspase-8, no TRAIL, compound-alone cytotoxicity counter-screen, luminescence viability, NB7+Caspase-8. Background: Counterscreens check selectivity or assay interference.

For another test, the target named is NB7+Caspase-8. Described as above. Particulars: NB7 neuroblastoma +caspase-8, TRAIL sensitization, luminescence viability, with TRAIL.
[3] abbreviates: run 1, single replicate panel EC50.
The mark [4] stands for this setting: run 2, single replicate panel EC50.

Tumor necrosis factor receptor superfamily member 10B (Homo sapiens), sequence (O14763 whole entry, looked up): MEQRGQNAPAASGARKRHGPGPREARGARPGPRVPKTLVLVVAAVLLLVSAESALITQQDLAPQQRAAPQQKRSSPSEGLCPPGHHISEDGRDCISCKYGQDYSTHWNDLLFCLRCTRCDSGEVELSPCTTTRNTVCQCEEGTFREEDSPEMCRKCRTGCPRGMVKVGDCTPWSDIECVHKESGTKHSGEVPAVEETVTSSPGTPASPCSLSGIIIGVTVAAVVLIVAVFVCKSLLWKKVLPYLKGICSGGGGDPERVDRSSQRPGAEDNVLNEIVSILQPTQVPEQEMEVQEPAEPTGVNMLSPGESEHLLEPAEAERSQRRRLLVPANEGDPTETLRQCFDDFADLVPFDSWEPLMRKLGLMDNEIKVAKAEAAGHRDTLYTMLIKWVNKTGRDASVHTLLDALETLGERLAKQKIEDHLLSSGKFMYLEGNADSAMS

Consider `CCOC(=O)c1ccc(N/C=C/C(=O)c2ccco2)cc1`, for which the EC50 is > 12.5 µM (inactive) in test [1]; > 12.5 µM (inactive) in test [2] (mean of runs); > 12.5 µM in test [2] (setting [3]); > 12.5 µM in test [2] (setting [4]); > 12.5 µM on NB7+Caspase-8 (setting [3]); > 12.5 µM at NB7+Caspase-8 (setting [4]).

On to `COc1cccc(NC(=O)Nc2nccc(C)n2)c1`, for which, in test [1], the EC50 entry was “inactive”. For the same compound, the EC50 in test [2] (mean of runs) is > 12.5 µM (inactive); in test [2] (setting [3]), > 12.5 µM; in test [2] (setting [4]) it was > 12.5 µM; at NB7+Caspase-8 (setting [3]) it was > 12.5 µM; at NB7+Caspase-8 (setting [4]), 4.33 µM.

Consider `COCCNC(=O)c1cc(-c2ccc(-c3ccccc3)cc2)nc2ccccc12`, for which the EC50 entry in test [1] and in test [2] (mean of runs) was “inactive” throughout. For the same compound, the EC50 in test [2] (setting [3]) is > 12.5 µM; in test [2] (setting [4]), 2.09 µM; at NB7+Caspase-8 (setting [3]), > 12.5 µM; at NB7+Caspase-8 (setting [4]) it was 6.28 µM.

Take `Cc1c(P(=S)(c2ccccc2)c2ccccc2)[n+]2ccccc2n1CCc1ccccc1`: the EC50 is > 12.5 µM (inactive) in test [1]; > 12.5 µM (inactive) in test [2] (mean of runs); > 12.5 µM in test [2] (setting [3]); > 12.5 µM in test [2] (setting [4]); > 12.5 µM on NB7+Caspase-8 (setting [3]); > 12.5 µM at NB7+Caspase-8 (setting [4]).

For `O=C(N/N=C/c1cccnc1)c1ccc2c(c1)OCO2`, the EC50 in test [1] is > 12.5 µM (inactive); in test [2] (setting [3]), 11.2 µM; in test [2] (setting [4]) it was > 12.5 µM; at NB7+Caspase-8 (setting [3]) it was > 12.5 µM; at NB7+Caspase-8 (setting [4]) it was > 12.5 µM. In addition, the EC50 entry in test [2] (mean of runs) is “inactive”.

Regarding `Cc1cccc2nc(=S)n(C(=O)c3ccco3)n12`, the EC50 was > 12.5 µM (inactive) in test [1]; > 12.5 µM (inactive) in test [2] (mean of runs); > 12.5 µM in test [2] (setting [3]); > 12.5 µM in test [2] (setting [4]); > 12.5 µM at NB7+Caspase-8 (setting [3]); > 12.5 µM at NB7+Caspase-8 (setting [4]).

In the case of `Cc1ccnc(NC(=O)Nc2ccc3c(c2)OCO3)c1`, the EC50 was > 12.5 µM (inactive) in test [1]; > 12.5 µM (inactive) in test [2] (mean of runs); > 12.5 µM in test [2] (setting [3]); > 12.5 µM in test [2] (setting [4]); > 12.5 µM at NB7+Caspase-8 (setting [3]); > 12.5 µM at NB7+Caspase-8 (setting [4]).

As to `O=C(NC(=S)Nc1nc2c(s1)CCCC2)c1ccccc1`, the EC50 result in test [1] is “inactive”. Moreover, the EC50 in test [2] (mean of runs) was > 12.5 µM (inactive); in test [2] (setting [3]), > 12.5 µM; in test [2] (setting [4]), > 12.5 µM; at NB7+Caspase-8 (setting [3]), 7.43 µM; on NB7+Caspase-8 (setting [4]), > 12.5 µM.

Regarding `Cc1nc(Cl)c2oc3ccccc3c2n1`, the EC50 was > 12.5 µM (inactive) in test [1]; > 12.5 µM (inactive) in test [2] (mean of runs); > 12.5 µM in test [2] (setting [3]); > 12.5 µM in test [2] (setting [4]); > 12.5 µM on NB7+Caspase-8 (setting [3]); > 12.5 µM at NB7+Caspase-8 (setting [4]).

Take `CCOC(=O)C(=C1Nc2ccccc2N1)n1c(-c2cccnc2)nc2ccccc21`: the EC50 entry in test [1] and in test [2] (mean of runs) was “inactive” in each case. In addition, the concentration giving a half-maximal response (EC50) in test [2] (setting [3]) is > 12.5 µM; in test [2] (setting [4]), 10.5 µM; at NB7+Caspase-8 (setting [3]), > 12.5 µM; on NB7+Caspase-8 (setting [4]), 9.47 µM.

Regarding `CC(C)C(=O)Nc1ccc(NC(=O)c2ccccn2)cn1`, the EC50 result in test [1] and in test [2] (mean of runs) was “inactive” in each case. Moreover, the EC50 in test [2] (setting [3]) was > 12.5 µM; in test [2] (setting [4]) it was 11.6 µM; at NB7+Caspase-8 (setting [3]) it was > 12.5 µM; at NB7+Caspase-8 (setting [4]), 9.78 µM.

Regarding `COc1ccc(-c2nc(-c3ccc(NC(=O)c4ccncc4)cc3)no2)cc1OC`, the EC50 in test [1] is > 12.5 µM (inactive); in test [2] (mean of runs), > 12.5 µM (inactive); in test [2] (setting [3]), > 12.5 µM; in test [2] (setting [4]), > 12.5 µM; on NB7+Caspase-8 (setting [3]) it was > 12.5 µM; on NB7+Caspase-8 (setting [4]) it was > 12.5 µM.

`COc1ccc(-c2cc(C(=O)N/N=C/c3cccnc3)c3ccccc3n2)cc1`: the EC50 is > 12.5 µM (inactive) in test [1]; 11.3 µM in test [2] (setting [3]); > 12.5 µM in test [2] (setting [4]); > 12.5 µM on NB7+Caspase-8 (setting [3]); > 12.5 µM on NB7+Caspase-8 (setting [4]). In addition, the EC50 result in test [2] (mean of runs) is “inactive”.

Consider `COC(=O)CSc1nc2cc(C)ccc2cc1C#N`, for which the EC50 result in test [1] is “inactive”. Also, the EC50 is > 12.5 µM (inactive) in test [2] (mean of runs); > 12.5 µM in test [2] (setting [3]); > 12.5 µM in test [2] (setting [4]); > 12.5 µM on NB7+Caspase-8 (setting [3]); 7.44 µM at NB7+Caspase-8 (setting [4]).

As to `CN(C)CCCN(C(=O)c1ccc(S(=O)(=O)N2CCCc3ccccc32)cc1)c1nc2ccc(F)cc2s1`, the EC50 was > 12.5 µM (inactive) in test [1]; > 12.5 µM (inactive) in test [2] (mean of runs); > 12.5 µM in test [2] (setting [3]); > 12.5 µM in test [2] (setting [4]); > 12.5 µM at NB7+Caspase-8 (setting [3]); > 12.5 µM on NB7+Caspase-8 (setting [4]).

For `Cc1cc(-c2ccccc2)nc(Nc2nc3c(C)cccc3c(=O)[nH]2)n1`, the EC50 in test [1] is > 12.5 µM (inactive); in test [2] (mean of runs), > 12.5 µM (inactive); in test [2] (setting [3]), > 12.5 µM; in test [2] (setting [4]), > 12.5 µM; at NB7+Caspase-8 (setting [3]), > 12.5 µM; at NB7+Caspase-8 (setting [4]) it was > 12.5 µM.

Take `Nc1ccccc1C(=O)NN=Cc1cccc([N+](=O)[O-])c1`: the EC50 result in test [1] and in test [2] (mean of runs) was “inactive” each time. Moreover, the EC50 in test [2] (setting [3]) is > 12.5 µM; in test [2] (setting [4]) it was 9.8 µM; at NB7+Caspase-8 (setting [3]) it was > 12.5 µM; at NB7+Caspase-8 (setting [4]), 7.52 µM.

As for `COc1cc(NC(=O)c2[nH]cnc2C(N)=O)cc(C(=O)Nc2cccc(C(F)(F)F)c2)c1`, the EC50 entry in test [1] and in test [2] (mean of runs) was “inactive” each time. Also, the EC50 in test [2] (setting [3]) is > 12.5 µM; in test [2] (setting [4]), 10.4 µM; at NB7+Caspase-8 (setting [3]), > 12.5 µM; on NB7+Caspase-8 (setting [4]), 8.91 µM.

Take `CCOc1ccc(-c2cc(C(=O)N3CCC(C)CC3)c3ccccc3n2)cc1`: the EC50 entry in test [1] was “inactive”. Moreover, the EC50 in test [2] (mean of runs) was > 12.5 µM (inactive); in test [2] (setting [3]) it was > 12.5 µM; in test [2] (setting [4]) it was > 12.5 µM; on NB7+Caspase-8 (setting [3]) it was > 12.5 µM; at NB7+Caspase-8 (setting [4]), 11.5 µM.

As to `CCOC(=O)c1cccc(-[n+]2c(-c3ccccc3)cc(-c3ccccc3)cc2-c2ccccc2)c1`, the EC50 in test [1] was > 12.5 µM (inactive); in test [2] (mean of runs), > 12.5 µM (inactive); in test [2] (setting [3]), > 12.5 µM; in test [2] (setting [4]), > 12.5 µM; at NB7+Caspase-8 (setting [3]), > 12.5 µM; at NB7+Caspase-8 (setting [4]), > 12.5 µM.

For `Cc1ccn2cc(C(=O)Nc3ccc4c(c3)OCCO4)nc2c1`, the EC50 result in test [1] and in test [2] (mean of runs) was “inactive” in each case. Further, the EC50 in test [2] (setting [3]) was 7.08 µM; in test [2] (setting [4]) it was 8.4 µM; at NB7+Caspase-8 (setting [3]), > 12.5 µM; at NB7+Caspase-8 (setting [4]) it was 4.29 µM.

Take `O=C(N/N=C/c1ccc2cccnc2c1)c1ccco1`: the EC50 entry in test [1] and in test [2] (mean of runs) was “inactive” throughout. The EC50 was 11.4 µM in test [2] (setting [3]), 12.1 µM in test [2] (setting [4]), > 12.5 µM at NB7+Caspase-8 (setting [3]) and 6.53 µM at NB7+Caspase-8 (setting [4]).

Turning to `CN(C)c1ccc(N/C=C/C(=O)c2ccco2)cc1`, the EC50 entry in test [1] and in test [2] (mean of runs) was “inactive” in each case. Also, the EC50 was 7.62 µM in test [2] (setting [3]), > 12.5 µM in test [2] (setting [4]), 7.78 µM on NB7+Caspase-8 (setting [3]) and 6.42 µM at NB7+Caspase-8 (setting [4]).

Usually EC50 stands for the concentration giving half of the maximal effect.
